In general, Ki refers to a dissociation constant, usually derived from enzyme kinetics or from competition with a known ligand.

The test system of assay [1] is MOLP-8 human multiple myeloma cell line. The assay is described as follows: MOLP8 Caspase-Glo 3/7 luminescent assay. The assay is classed as cell-based. To be noted: averaged over all runs on all batches. The text has this:
(§1) MCL-1 is a regulator of apoptosis and is highly over-expressed in tumor cells that escape cell death. The assay evaluates the cellular potency of small-molecule compounds targeting regulators of the apoptosis pathway, primarily MCL-1, Bfl-1, Bcl-2, and other proteins of the Bcl-2 family. Protein-protein inhibitors disrupting the interaction of anti-apoptotic regulators with BH3-domain proteins initiate apoptosis.
The Caspase-Glo® 3/7 Assay is a luminescent assay that measures caspase-3 and -7 activities in purified enzyme preparations or cultures of adherent or suspension cells. The assay provides a proluminescent caspase-3/7 substrate, which contains the tetrapeptide sequence DEVD. This substrate is cleaved to release aminoluciferin, a substrate of luciferase used in the production of light. Addition of the single Caspase-Glo® 3/7 Reagent in an “add-mix-measure” format results in cell lysis, followed by caspase cleavage of the substrate and generation of a “glow-type” luminescent signal.
This assay uses the MOLP-8 human multiple myeloma cell line, which is sensitive to MCL-1 inhibition.
Cell cultures were maintained between 0.2 and 2.0×10^6 cells/mL. The cells were harvested by collection in 50 mL conical tubes. The cells were then pelleted at 500 g for 5 mins before removing supernatant and resuspension in fresh pre-warmed culture medium. The cells were counted and diluted as needed.
The assay reagent was prepared by transferring the buffer solution to the substrate vial and mixing. The solution may be stored for up to 1 week at 4° C. with negligible loss of signal.
Compounds were delivered in assay-ready plates (Proxiplate) and stored at −20° C.
Assays always include 1 reference compound plate containing reference compounds. The plates were spotted with 40 nL of compounds (0.5% DMSO final in cells; serial dilution; 30 μM highest conc. 1/3 dilution, 10 doses, duplicates). The compounds were used at room temperature and 4 μL of pre-warmed media was added to all wells except column 2 and 23. The negative control was prepared by adding 1% DMSO in media. The positive control was prepared by adding the appropriate positive control compound in final concentration of 60 μM in media. The plate was prepared by adding 4 μL negative control to column 23, 4 μL positive control to column 2 and 4 μL cell suspension to all wells in the plate. The plate with cells was then incubated at 37° C. for 2 hours. The assay signal reagent is the Caspase-Glo solution described above, and 8 μL was added to all wells. The plates were then sealed and measured after 30 minutes.
The activity of a test compound was calculated as percent change in apoptosis induction as follows: […]

In the next assay the test system is MOLP8 cell line. The assay is described as follows: MOLP8 CellEvent Caspase-3/7 Green live-cell IncuCyte apoptosis assay. The assay is classed as cell-based, human. The conditions noted are these: averaged values. How it is done:
as §1
Activation of the apoptotic pathway was measured using the CellEvent™ Caspase-3/7 Green ReadyProbes™ Reagent (Thermo Fisher C10423, C10723). This assay produces a green fluorescent stain in cells that enter the apoptosis pathway. CellEvent® Caspase-3/7 Green reagent is a four amino acid peptide (DEVD) conjugated to a nucleic acid-binding dye that is non-fluorescent when not bound to DNA. The CellEvent® Caspase-3/7 Green reagent is intrinsically non-fluorescent, as the DEVD peptide inhibits binding of the dye to DNA. Upon activation of caspase-3/7 in apoptotic cells, the DEVD peptide is cleaved and the free dye can bind DNA, generating a bright green fluorescence. The activation of Caspase-3 and Caspase-7 is downstream of inhibition of MCL-1 or other apoptosis inhibiting proteins in cell lines that are dependent on them.
The live-cell readout on the IncuCyte permits tracking over time of the Caspase activation. […] The IncuCyte readout also allows one to normalize for cell number, as the suspension cells are hard to distribute evenly.
Signals were measured every 2 h for a duration of 22 h. The ratio of the Caspase mask to the Confluence mask, per image, as raw data, was calculated and the kinetic trace for every well was exported to Genedata Screener for analysis.
In Genedata Screener values for 6 h, 12 h, and 22 h from the kinetic traces were extracted. The values were normalized against negative controls (untreated cells). A standard dose-response analysis was performed on the normalized data.
The following data was reported at each of the following three aforementioned time points: (a) The dose-response curve, (b) The qAC50 and qAC50 Mode, and (c) Max Activity.
Cells were maintained in culture medium containing 10% Heat Inactivated (HI) FBS, 2 mM L-Glutamine and 50 μg/mL Gentamycin phenol red free RPMI-1640. Cells were split at 0.4 million/mL twice a week.
On Day 1, plates containing individual wells with test compounds at 10 mM concentration, 150 nL per well. The final concentrations range from […] compound (and no compound control) and compounds were thawed at room temperature for 1 hour. 25 μl of prewarmed medium was added into each well by multidrop (column 1, 3-22, 24), followed by addition of DMSO control (0.6% DMSO) in column 2. The plate was sealed using Breathe-Easy® sealing membrane and shaken for 30 min at room temperature to dissolve the test compound(s) in medium. The plate was then kept in the incubator for 1 hour at 37° C., 5% CO2.
MOLP8 cells in medium at […] (20000/50 μl final in assay) were prepared with CellEvent™ Caspase-3/7 Green Detection Reagent at 4 μM (2 μM final in assay). Once prepared, the cells were added to the test compound plate in an amount of 20000 and the plate was immediately placed in the IncuCyte and imaging started using following settings: 10× objective, 2 s exposure time in green channel, interval of 2 h, acquisition stopped after 22 h.
For analysis in IncuCyte, a Basic Analysis protocol was defined to calculate the “confluence” and “caspase” areas from the “Phase” and “green” images, respectively, as follows: (a) Confluence: Segmentation Adjustment 1, Hole Fill 0, Adjust Size −2, No filters (b) Caspase: Top-Hat segmentation, Radius 10, Threshold 0.3 GCU, Edge Split On with sensitivity 0, Hole Fill 0, Adjust Size 1, and filter on a minimum Area of 20 μm^2. The analyzer is trained on a sufficient number of positive and negative control wells, as well as compound treated wells, verifying that the “confluence” layer detects both live and dead (condensed) cells. […]

For assay [2], the target named is Myeloid Cell Leukemia 1 (Mcl-1) (Homo sapiens, UniProt Q07820). In words: biochemical. The assay is classed as binding. The conditions noted are these: HTRF Ki (nM). On the technique in general: TR-FRET usually uses a lanthanide donor and a delayed reading to cut background.
Setting [3] is: MOLP8 cells, 2 hours incubation, read-out: MOLP8 Caspase-Glo AC50.
Where [4] appears, read: read-out: MOLP8 Caspase 3/7 AC50 at 6 h, MOLP8 cells, 6 h.
[5] abbreviates: read-out: MOLP8 Caspase 3/7 AC50 at 12 h, MOLP8 cells, 12 h.
Where [6] appears, read: read-out: MOLP8 Caspase 3/7 AC50 at 22 h, MOLP8 cells, 22 h.
Setting [7] is: Homo sapiens, MOLP-8, 6 h, read-out: MOLP8 Caspase 3/7 AC50 at 6 h (μM), MOLP8 cells, 6 h.
Where [8] appears, read: Homo sapiens, MOLP-8, 12 h, read-out: MOLP8 Caspase 3/7 AC50 at 12 h (μM), MOLP8 cells, 12 h.
The mark [9] stands for this setting: Homo sapiens, MOLP-8, 22 h, read-out: MOLP8 Caspase 3/7 AC50 at 22 h (μM), MOLP8 cells, 22 h.
The mark [10] stands for this setting: Homo sapiens, MOLP-8, 2 h, read-out: MOLP8 Caspase-Glo AC50 (nM), MOLP8 cells, 2 hours incubation.

“And” between values parts separate entries of the source, which are not always exact repeats. Equal entries are not always repeated. Where two headings read alike, the source gives them in different places.

Sequence of Myeloid Cell Leukemia 1 (Mcl-1) (Q07820 whole entry): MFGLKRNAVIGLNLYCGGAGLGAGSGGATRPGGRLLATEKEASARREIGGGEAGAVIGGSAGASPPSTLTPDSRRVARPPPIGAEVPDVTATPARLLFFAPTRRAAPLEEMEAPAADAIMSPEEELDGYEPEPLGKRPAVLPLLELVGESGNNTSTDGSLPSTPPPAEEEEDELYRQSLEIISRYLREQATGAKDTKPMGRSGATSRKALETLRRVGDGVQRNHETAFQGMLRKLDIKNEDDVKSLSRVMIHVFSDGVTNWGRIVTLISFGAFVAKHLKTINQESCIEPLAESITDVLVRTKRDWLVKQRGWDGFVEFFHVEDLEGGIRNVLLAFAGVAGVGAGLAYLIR

As to `Cc1c2c(nn1CCN1CCOCC1)CN(C)Cc1cc(n(C)n1)CSc1cc(c3ccccc3c1)OCCCc1c(C(=O)O)n(C)c3c-2c(Cl)ccc13` (single isomer, unassigned) [Compound 14], the AC50 amounted to 3680 nM in assay [1] (setting [3]), 7.67 µM with MOLP8 cell line (setting [4]), 7.16 µM with MOLP8 cell line (setting [5]) and 7.33 µM with MOLP8 cell line (setting [6]). Further, the Ki in assay [2] was 2.85 nM and 2.53 nM.
For `COCCn1nc2c(c1C)-c1c(Cl)ccc3c(c(C(=O)O)n(C)c13)CCCOc1cc(cc3ccccc13)SCc1cc(nn1C)CN(C)C2` (single isomer, unassigned) [Compound 27], the AC50 in assay [1] (read-out: MOLP8 Caspase-Glo AC50, MOLP8 cells, 2 hours incubation) was 36 nM; in the assay on MOLP8 cell line (setting [4]), 0.1 µM; in the assay with MOLP8 cell line (setting [5]), 0.1 µM; in the assay on MOLP8 cell line (setting [6]), 0.09 µM. Moreover, in assay [2], the Ki was 0.03 nM and 0.06 nM.
For the molecule `COCCOCCn1nc(C)c2c1CN(C)Cc1cc(n(C)n1)CSc1cc(c3ccccc3c1)OCCCc1c(C(=O)O)n(C)c3c-2c(Cl)ccc13` (single isomer, unassigned) [Compound 30], the AC50 in assay [1] (setting [3]) came to 971 nM; in the assay on MOLP8 cell line (setting [4]), 2.01 µM; in the assay on MOLP8 cell line (setting [5]), 2.14 µM; with MOLP8 cell line (setting [6]) it was 2.23 µM. In addition, in assay [2], the Ki was 0.81 nM and 0.75 nM.
Regarding `COCCOCCn1nc(C)c2c1CN(C)Cc1cc(n(C)n1)CSc1cc(c3ccccc3c1)OCCCc1c(C(=O)O)n(C)c3c-2c(Cl)ccc13` (single isomer, unassigned) [Compound 29], the AC50 in assay [1] (setting [3]) stood at 23 nM; with MOLP8 cell line (setting [4]), 0.06 µM; in the assay on MOLP8 cell line (setting [5]), 0.062 µM; in the assay with MOLP8 cell line (setting [6]), 0.06 µM. The Ki in assay [2] was 0.06 nM and 0.03 nM.
As to `Cc1nn(CCN(C)C)c2c1-c1c(Cl)ccc3c(c(C(=O)O)n(C)c13)CCCOc1cc(cc3ccccc13)SCc1cc(nn1C)CN(C)C2` (single isomer, unassigned) [Compound 22], the AC50 in assay [1] (setting [3]) is 14500 nM; with MOLP8 cell line (setting [4]), about 17.4 µM; in the assay on MOLP8 cell line (setting [5]), about 17 µM; in the assay with MOLP8 cell line (setting [6]), about 17 µM. The Ki in assay [2] is 3.73 nM and 3.07 nM.
Regarding `Cc1nn(CCN2CCOCC2)c2c1-c1c(Cl)ccc3c(c(C(=O)O)n(C)c13)CCCOc1cc(cc3ccccc13)SCc1cc(nn1C)CN(C)C2` (single isomer, unassigned) [Compound 42], the AC50 was 1260 nM in assay [1] (setting [3]), 2.96 µM in the assay with MOLP8 cell line (setting [4]), 3.18 µM in the assay on MOLP8 cell line (setting [5]) and 2.98 µM with MOLP8 cell line (setting [6]). The affinity in assay [2] corresponds to a Ki of 0.79 nM.
`Cc1c2c(nn1CCN1CCOCC1)CN(C)Cc1cc(n(C)n1)CSc1cc(c3ccccc3c1)OCCCc1c(C(=O)O)n(C)c3c-2c(Cl)ccc13` (single isomer, unassigned) [Compound 13]: the AC50 in assay [1] (setting [3]) came to 75 nM; in the assay on MOLP8 cell line (setting [4]), 0.15 µM; in the assay with MOLP8 cell line (setting [5]), 0.15 µM; with MOLP8 cell line (setting [6]), 0.17 µM. The Ki in assay [2] is 0.05 nM and 0.04 nM.
As for `Cc1c2c(nn1C)CSCc1cc(nn1CC1CCOCC1)CSc1cc(c3ccccc3c1)OCCCc1c(C(=O)O)n(C)c3c-2c(Cl)ccc13` [Compound 11], the AC50 was 385 nM in assay [1] (Homo sapiens, MOLP-8, 2 h, MOLP8 cells, 2 hours incubation, read-out: MOLP8 Caspase-Glo AC50); 0.37 µM in the assay with MOLP8 cell line (setting [7]); 0.43 µM in the assay on MOLP8 cell line (setting [8]); 0.41 µM in the assay on MOLP8 cell line (setting [9]). Further, the Ki in assay [2] was 0.47 nM and 0.43 nM.
As for `Cc1nn(CCCN2CCOCC2)c2c1-c1c(Cl)ccc3c(c(C(=O)O)n(C)c13)CCCOc1cc(cc3ccccc13)SCc1cc(nn1C)CN(C)C2` (single isomer, unassigned) [Compound 33], the AC50 in assay [1] (setting [3]) worked out at 94 nM; in the assay on MOLP8 cell line (setting [4]), 0.3 µM; with MOLP8 cell line (setting [5]), 0.24 µM; in the assay with MOLP8 cell line (setting [6]), 0.34 µM. Also, the affinity in assay [2], expressed as Ki, was 0.03 nM.
As to `COCCn1nc2cc1CSc1cc(c3ccccc3c1)OCCCc1c(C(=O)O)n(C)c3c(c(Cl)ccc13)-c1c(nn(C)c1C)CSC2` [Compound 10], the AC50 in assay [1] (setting [10]) is 49 nM; in the assay on MOLP8 cell line (setting [7]) it was 0.2 µM; with MOLP8 cell line (setting [8]), 0.22 µM; in the assay on MOLP8 cell line (setting [9]), 0.21 µM. This molecule also came in with a Ki in assay [2] of 0.11 nM.
Turning to `Cc1nn(CC2CCOCC2)c2c1-c1c(Cl)ccc3c(c(C(=O)O)n(C)c13)CCCOc1cc(cc3ccccc13)SCc1cc(nn1C)CN(C)C2` (single isomer, unassigned) [Compound 18], the AC50 in assay [1] (setting [3]) amounted to 3760 nM; in the assay with MOLP8 cell line (setting [4]), 8.32 µM; with MOLP8 cell line (setting [5]) it was 8.41 µM; in the assay on MOLP8 cell line (setting [6]) it was 7.85 µM. Also, the Ki in assay [2] is 2.46 nM and 3.31 nM.
For the molecule `Cc1c2c(nn1CCO)CN(C)Cc1cc(n(C)n1)CSc1cc(c3ccccc3c1)OCCCc1c(C(=O)O)n(C)c3c-2c(Cl)ccc13` (single isomer, unassigned) [Compound 38], the AC50 came to 3050 nM in assay [1] (setting [10]), 5.49 µM with MOLP8 cell line (setting [4]), 5.39 µM with MOLP8 cell line (setting [5]) and 5.16 µM in the assay on MOLP8 cell line (setting [6]). Further, in assay [2], the Ki is 0.7 nM and 0.48 nM.
As to `Cc1nn(CCN(C)C)c2c1-c1c(Cl)ccc3c(c(C(=O)O)n(C)c13)CCCOc1cc(cc3ccccc13)SCc1cc(nn1C)CN(C)C2` (single isomer, unassigned) [Compound 19], the AC50 in assay [1] (setting [3]) is 233 nM; in the assay with MOLP8 cell line (setting [4]), 1.09 µM; in the assay with MOLP8 cell line (setting [5]), 0.99 µM; in the assay with MOLP8 cell line (setting [6]), 0.99 µM. In assay [2], the Ki is 0.08 nM and 0.18 nM.
